What was measured:
Type in all cases: in vivo
Details in all cases: evaluated after 13 days
[1] = tested on: Amaranthus retoflexus (AMARE); experiment: Post-emergence herbicidal glasshouse test (Table B1)
Outline: (§1)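 In this pot assay, seedlings or sown soil receive a spray of formulated active ingredient (acetone/water 50:50, 0.5% Tween 20) at 500 g/h unless indicated. Conditions: 24/16° C day/night, 14 hours light, 65% humidity, watering twice daily. Injury is scored after 13 days, 1 (0-19%) to 5 (80-100%).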

[2] = tested on: Echinochloa crus-galh (ECHCG); experiment: as above
Outline: as §1

[3] = tested on: Abutilon theophrasti (ABUTH); experiment: as above
Outline: as §1

[4] = tested on: Ipomoea hederacea (IPOHE); experiment: as above
Outline: as §1

Setaria faberi (SETFA) [5] = experiment: as above
Outline: as §1

[6] = tested on: Amaranthus retoflexus (AMARE); experiment: Pre-emergence herbicidal glasshouse test (Table B1)
Outline: as §1

[7] = tested on: Echinochloa crus-galh (ECHCG); experiment: as above
Outline: as §1

[8] = tested on: Abutilon theophrasti (ABUTH); experiment: as above
Outline: as §1

[9] = tested on: Ipomoea hederacea (IPOHE); experiment: as above
Outline: as §1

Setaria faberi (SETFA) [10] = experiment: as above
Outline: as §1

Row | Compound | POST Application AMARE, percentage damage on five-point scale ([1]; applied at 500 g/h) | POST Application ECHCG, percentage damage on five-point scale ([2]; applied at 500 g/h) | POST Application ABUTH, percentage damage on five-point scale ([3]; applied at 500 g/h) | POST Application IPOHE, percentage damage on five-point scale ([4]; applied at 500 g/h) | POST Application SETFA, percentage damage on five-point scale (Setaria faberi (SETFA) [5]; applied at 500 g/h) | PRE Application AMARE, percentage damage on five-point scale ([6]; applied at 500 g/h) | PRE Application ECHCG, percentage damage on five-point scale ([7]; applied at 500 g/h) | PRE Application ABUTH, percentage damage on five-point scale ([8]; applied at 500 g/h) | PRE Application IPOHE, percentage damage on five-point scale ([9]; applied) | PRE Application SETFA, percentage damage on five-point scale (Setaria faberi (SETFA) [10]; applied at 500 g/h) | POST Application AMARE, percentage damage on five-point scale ([1]; applied at 125 g/ha) | POST Application ECHCG, percentage damage on five-point scale ([2]; applied at 125 g/ha) | POST Application ABUTH, percentage damage on five-point scale ([3]; applied at 125 g/ha) | POST Application IPOHE, percentage damage on five-point scale ([4]; applied at 125 g/ha) | POST Application SETFA, percentage damage on five-point scale (Setaria faberi (SETFA) [5]; applied at 125 g/ha) | PRE Application AMARE, percentage damage on five-point scale ([6]; applied at 125 g/ha) | PRE Application ECHCG, percentage damage on five-point scale ([7]; applied at 125 g/ha) | PRE Application ABUTH, percentage damage on five-point scale ([8]; applied at 125 g/ha) | PRE Application IPOHE, percentage damage on five-point scale ([9]; applied at 125 g/ha) | PRE Application SETFA, percentage damage on five-point scale (Setaria faberi (SETFA) [10]; applied at 125 g/ha)
1 | COC(C)(C)C(=O)Nc1c(OC(F)(F)F)ccc(C(=O)Nc2nnnn2C)c1Cl [Compound 1.125] | 5 (5=80-100%) | 5 (5=80-100%) | 5 (5=80-100%) | 5 (5=80-100%) | 5 (5=80-100%) | 5 (5=80-100%) | 5 (5=80-100%) | 5 (5=80-100%) | 4 (4=60-79%) | 1 (1=0-19%) |  |  |  |  |  |  |  |  |  | 
2 | CC(=O)Nc1c(OCC(F)(F)F)ccc(C(=O)Nc2nnnn2C)c1Cl [Compound 1.018, 3-acetamido-2-chloro-N-(1-methyltetrazol-5-yl)-4-(2,2,2-trifluoroethoxy)benzamide] | 5 (5=80-100%) | 5 (5=80-100%) | 5 (5=80-100%) | 4 (4=60-79%) | 5 (5=80-100%) | 5 (5=80-100%) | 3 (3=40-59%) | 4 (4=60-79%) | 3 (3=40-59%) | 3 (3=40-59%) |  |  |  |  |  |  |  |  |  | 
3 | Cn1nnnc1NC(=O)c1ccc(OC(F)F)c(NC(=O)c2ccccn2)c1Cl [Compound 1.108] |  |  |  |  |  |  |  |  |  |  | 5 (5=80-100%) | 5 (5=80-100%) | 4 (4=60-79%) | 4 (4=60-79%) | 4 (4=60-79%) | 5 (5=80-100%) | 2 (2=20-39%) | 4 (4=60-79%) | 2 (2=20-39%) | 3 (3=40-59%)
4 | Cn1nnnc1NC(=O)c1ccc(OC(F)F)c(NC(=O)c2ccc(C(F)(F)F)cn2)c1Cl [Compound 1.084] |  |  |  |  |  |  |  |  |  |  | 4 (4=60-79%) | 3 (3=40-59%) | 5 (5=80-100%) | 3 (3=40-59%) | 3 (3=40-59%) | 5 (5=80-100%) | 1 (1=0-19%) | 4 (4=60-79%) | 1 (1=0-19%) | 1 (1=0-19%)
5 | CC(=O)Nc1c(OC(F)(F)C(F)F)ccc(C(=O)Nc2nnnn2C)c1Cl [Compound 1.031] |  |  |  |  |  |  |  |  |  |  | 4 (4=60-79%) | 4 (4=60-79%) | 4 (4=60-79%) | 4 (4=60-79%) | 4 (4=60-79%) | 5 (5=80-100%) | 4 (4=60-79%) | 4 (4=60-79%) | 3 (3=40-59%) | 3 (3=40-59%)
6 | CCCC(=O)Nc1c(OC(F)(F)F)ccc(C(=O)Nc2nnnn2CC)c1Cl [Compound 1.114] | 5 (5=80-100%) | 5 (5=80-100%) | 5 (5=80-100%) | 5 (5=80-100%) | 5 (5=80-100%) | 5 (5=80-100%) | 5 (5=80-100%) | 5 (5=80-100%) | 3 (3=40-59%) | 2 (2=20-39%) |  |  |  |  |  |  |  |  |  | 
7 | CC(F)C(=O)Nc1c(OC(F)(F)F)ccc(C(=O)Nc2nnnn2C)c1Cl (stereo not shown) [Compound 1.009] | 5 (5=80-100%) | 5 (5=80-100%) | 5 (5=80-100%) | 5 (5=80-100%) | 5 (5=80-100%) | 5 (5=80-100%) | 1 (1=0-19%) | 5 (5=80-100%) | 4 (4=60-79%) | 5 (5=80-100%) |  |  |  |  |  |  |  |  |  | 
8 | CCn1nnnc1NC(=O)c1ccc(OC(F)(F)F)c(NC(C)=O)c1Cl [Compound 1.015] | 5 (5=80-100%) | 5 (5=80-100%) | 5 (5=80-100%) | 5 (5=80-100%) | 5 (5=80-100%) | 5 (5=80-100%) | 4 (4=60-79%) | 5 (5=80-100%) | 1 (1=0-19%) | 2 (2=20-39%) |  |  |  |  |  |  |  |  |  | 
9 | CCCC(=O)Nc1c(OC(F)(F)F)ccc(C(=O)Nc2nnnn2C)c1Cl [Compound 1.121] | 5 (5=80-100%) | 5 (5=80-100%) | 5 (5=80-100%) | 5 (5=80-100%) | 5 (5=80-100%) | 5 (5=80-100%) | 5 (5=80-100%) | 4 (4=60-79%) | 2 (2=20-39%) | 1 (1=0-19%) |  |  |  |  |  |  |  |  |  | 
10 | CCn1nnnc1NC(=O)c1ccc(OC(F)(F)F)c(NC(=O)CCOC)c1Cl [Compound 1.113] | 5 (5=80-100%) | 5 (5=80-100%) | 5 (5=80-100%) | 5 (5=80-100%) | 5 (5=80-100%) | 5 (5=80-100%) | 5 (5=80-100%) | 5 (5=80-100%) | 1 (1=0-19%) | 2 (2=20-39%) |  |  |  |  |  |  |  |  |  | 
11 | CCn1nnnc1NC(=O)c1ccc(OC(F)(F)F)c(NC(=O)C(C)F)c1Cl (stereo not shown) [Compound 1.127] | 5 (5=80-100%) | 5 (5=80-100%) | 5 (5=80-100%) | 5 (5=80-100%) | 5 (5=80-100%) | 5 (5=80-100%) | 5 (5=80-100%) | 5 (5=80-100%) | 2 (2=20-39%) | 3 (3=40-59%) |  |  |  |  |  |  |  |  |  | 
12 | COCCC(=O)Nc1c(OC(F)(F)F)ccc(C(=O)Nc2nnnn2C)c1Cl [Compound 1.120] | 5 (5=80-100%) | 5 (5=80-100%) | 5 (5=80-100%) | 5 (5=80-100%) | 5 (5=80-100%) | 5 (5=80-100%) | 5 (5=80-100%) | 4 (4=60-79%) | 1 (1=0-19%) | 1 (1=0-19%) |  |  |  |  |  |  |  |  |  | 
13 | CC(=O)Nc1c(OC(F)F)ccc(C(=O)Nc2nnnn2C)c1Cl [Compound 1.090] |  |  |  |  |  |  |  |  |  |  | 4 (4=60-79%) | 4 (4=60-79%) | 4 (4=60-79%) | 4 (4=60-79%) | 4 (4=60-79%) | 5 (5=80-100%) | 5 (5=80-100%) | 5 (5=80-100%) | 4 (4=60-79%) | 4 (4=60-79%)

Reference: patent US20230219904A1 (SYNGENTA CROP PROTECTION AG, priority 2020, published 2023)
